{
  "source": "patent US8415359B2",
  "about": "“Phenylpyrrole derivative” (Daiichi Sankyo Company, Limited, priority 2008, dated 2013)",
  "data": [
    {"target": "T1, human pancreatic GK (human glucokinase variant 1, GST-fused protein) (Homo sapiens, UniProt P35557)", "T1 construct": "made in house; host or cells: Escherichia coli (such as BL21 or JM109)", "T1 sequence (P35557 1-465)": "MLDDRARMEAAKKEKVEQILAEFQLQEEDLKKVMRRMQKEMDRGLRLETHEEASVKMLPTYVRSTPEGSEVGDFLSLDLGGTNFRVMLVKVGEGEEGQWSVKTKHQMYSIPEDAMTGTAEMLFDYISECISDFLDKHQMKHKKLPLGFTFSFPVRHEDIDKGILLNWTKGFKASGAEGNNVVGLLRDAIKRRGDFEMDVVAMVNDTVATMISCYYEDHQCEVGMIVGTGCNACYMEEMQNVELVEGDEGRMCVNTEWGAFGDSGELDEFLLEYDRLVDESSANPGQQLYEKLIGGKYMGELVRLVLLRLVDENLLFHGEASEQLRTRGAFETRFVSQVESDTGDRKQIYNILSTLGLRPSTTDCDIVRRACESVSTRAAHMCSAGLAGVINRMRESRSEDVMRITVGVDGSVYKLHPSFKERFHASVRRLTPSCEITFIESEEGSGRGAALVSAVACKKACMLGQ", "assay": "GK activity test (GK activation rate)", "assay_type": "biochemical", "details": "test compound 1 μM; glucose 5 mM; 30 min at room temperature; absorbance at 340 nm with test compound / without test compound", "values": [
      {"smiles": "C[C@@H]1OC(c2ccc(-c3cc(Oc4cnc(S(C)(=O)=O)cn4)cc(O[C@@H](C)CO)c3)[nH]2)=N[C@@H]1C", "note": "[Example 109, (2S)-2-(3-{5-[(4R,5S)-4,5-Dimethyl-4,5-dihydro-1,3-oxazol-2-yl]-1H-pyrrol-2-yl}-5-{[5-(methylsulfonyl)pyrazin-2-yl]oxy}phenoxy)propan-1-ol]", "GK Activation Rate": 2.2},
      {"smiles": "COC[C@H](C)Oc1cc(Oc2cnc(S(C)(=O)=O)cn2)cc(-c2ccc(C3=N[C@H](CO)[C@H](C)O3)[nH]2)c1", "note": "[Example 110, {(4R,5S)-2-[5-(3-{[(2S)-1-Methoxypropan-2-yl]oxy}-5-{[5-(methylsulfonyl)pyrazin-2-yl]oxy}phenyl)-1H-pyrrol-2-yl]-5-methyl-4,5-dihydro-1,3-oxazol-4-yl}methanol]", "GK Activation Rate": 2.4},
      {"smiles": "COC[C@H](C)Oc1cc(Oc2cnc(S(C)(=O)=O)cn2)cc(-c2ccc(C3=N[C@H]([C@H](C)O)CO3)[nH]2)c1", "note": "[Example 112, (1S)-1-{(4S)-2-[5-(3-{[(25)-1-Methoxypropan-2-yl]oxy}-5-{[5-(methylsulfonyl)pyrazin-2-yl]oxy}phenyl)-1H-pyrrol-2-yl]-4,5-dihydro-1,3-oxazol-4-yl}ethanol]", "GK Activation Rate": 2.4},
      {"smiles": "COC[C@H](C)Oc1cc(Oc2cnc(S(C)(=O)=O)cn2)cc(-c2ccc(C3=N[C@H]([C@@H](C)O)CO3)[nH]2)c1", "note": "[Example 114, (1R)-1-{(4S)-2-{[5-(3-[(2S)-1-Methoxypropan-2-yl]oxy}-5-{[5-(methylsulfonyl)pyrazin-2-yl]oxy}phenyl)-1H-pyrrol-2-yl]-4,5-dihydro-1,3-oxazol-4-yl}ethanol]", "GK Activation Rate": 2.2},
      {"smiles": "CNS(=O)(=O)c1ccc(Oc2cc(O[C@@H](C)CO)cc(-c3ccc(C4=NC[C@H](C)O4)[nH]3)c2)cn1", "note": "[Example 122, 5-(3-[(1S)-2-Hydroxy-1-methylethoxy]-5-{5-[(5S)-5-methyl-4,5-dihydro-1,3-oxazol-2-yl]-1H-pyrrol-2-yl}phenoxy)-N-methylpyridine-2-sulfonamide]", "GK Activation Rate": 2.5},
      {"smiles": "CNC(=O)c1ccc(Oc2cc(O[C@@H](C)CO)cc(-c3ccc(C4=NC[C@H](C)O4)[nH]3)c2)cn1", "note": "[Example 123, 5-(3-[(1S)-2-Hydroxy-1-methylethoxy]-5-{5-[(5S)-5-methyl-4,5-dihydro-1,3-oxazol-2-yl]-1H-pyrrol-2-yl}phenoxy)-N-methylpyridine-2-carboxamide]", "GK Activation Rate": 2.6},
      {"smiles": "CNC(=O)c1ccc(Oc2cc(O[C@@H](C)COC)cc(-c3ccc(C4=NC[C@H](CO)O4)[nH]3)c2)cn1", "note": "[Example 126, 5-(3-{5-[(5R)-5-(Hydroxymethyl)-4,5-dihydro-1,3-oxazol-2-yl]-1H-pyrrol-2-yl}-5-[(1S)-2-methoxy-1-methylethoxy]phenoxy)-N-methylpyridine-2-carboxamide]", "GK Activation Rate": 2.6},
      {"smiles": "CNS(=O)(=O)c1ccc(Oc2cc(O[C@@H](C)COC)cc(-c3ccc(C4=NC[C@H](CO)O4)[nH]3)c2)cn1", "note": "[Example 127, 5-(3-{5-[(5R)-5-(Hydroxymethyl)-4,5-dihydro-1,3-oxazol-2-yl]-1H-pyrrol-2-yl}-5-[(1S)-2-methoxy-1-methylethoxy]phenoxy)-N-methylpyridine-2-sulfonamide]", "GK Activation Rate": 2.4}
    ]}
  ]
}
